{"source": "patent US7230016B2", "about": "“Pioglitazone salts, such as pioglitazone sulfate, and pharmaceutical compositions and processes using the same” (priority 2003, dated 2007)", "key": {"[1]": {"assay": "Aqueous solubility of pioglitazone salts derived from strong acids or bases", "format": "physicochemical", "conditions": "for soluble in H2O: aqueous solubility of the salt, * = the salt is dissolved in water to form a blurred solution", "method": "As used herein a pioglitazone salt is considered “water-soluble” if a salt concentration of at least 7 mg/ml can be achieved, even if only momentarily, in distilled water at 25° C. […] The base salts also dissolved in water but they typically formed an unclear solution. The water-soluble salts of pioglitazone are useful as active agents in forming a pioglitazone pharmaceutical composition, especially solid dosage forms, as is described herein after. […] Depending on the salt, the precipitation of a solid begins as quickly as within a few minutes or after several hours. The time of precipitation also depends on nucleation. In particular, once a solid forms, the solution quickly precipitates to form a complete suspension."}, "[2]": {"assay": "Dissolution experiment comparing pioglitazone salts (Example 2)", "format": "physicochemical", "conditions": "room temperature; for Dissolution (instant dissolution rate): 0.25 mmol salt added into 10 ml H2O with stirring, ** = salt dissolved partially to form an unclear solution; for later behaviour of the solution (turning into suspension / pioglitazone base) / kind of solution yielded on addition to water: 0.25 mmol salt in 10 ml H2O, stirring; for kind of solution yielded on addition to water: tosylate and 2-napsylate within 1 minute", "method": "At room temperature, each pioglitazone salt (0.25 mmol) was added into 10 ml H2O with stirring."}, "[3]": {"assay": "Stability of pioglitazone sulfate aqueous solution with HPMC as solution stabilizer (Examples 3 and 4)", "format": "physicochemical", "source_text": "Specifically, a solution stabilizer can be effectively added to a pioglitazone sulfate aqueous solution to enhance the stability. As used herein a “solution stabilizer” is an additive that when present in some amount in an aqueous pioglitazone sulfate solution, provides a statistically significant delay in the precipitation of pioglitazone base from the solution in comparison to the same solution held under the same conditions but without the solution stabilizer contained therein. […] Typically the solution stabilizer is a polymer, such as a water-soluble polymer, or a crown-ether. The solution stabilizer may be fully dissolved, partly dissolved and/or swelled, or not dissolved in the aqueous solution, but is preferably dissolved therein. Preferably the solution stabilizer is hydroxypropylmethylcellulose (HPMC), polyvinylpyrrolidone, or cyclodextrin, and most preferably HPMC. The amount of solution stabilizer is generally within the range of 1 to 500 mg/ml of the solution, typically 1 to 200 mg/ml, more typically 10 to 100 mg/ml. A stabilized pioglitazone sulfate solution is thus especially useful as a liquid pharmaceutical formulation and/or for making a liquid pharmaceutical formulation. The following system was tested using HPMC as an additive. […] To a clear solution containing 1.0 g of hydroxypropylmethylcellulose (HPMC) in 25 ml of H2O was added 125 mg of pioglitazone sulfate with stirring."}, "[4]": {"assay": "Properties of pioglitazone sulfate (solid state, methanol solubility, pH of aqueous solution)", "format": "physicochemical", "method": "Of the water-soluble salts, pioglitazone sulfate is the most preferred. As used herein “pioglitazone sulfate” means the salt formed from pioglitazone and sulfuric acid. The salt preferably has approximately a 1:1 molar ratio of pioglitazone moiety to sulfuric acid moiety, especially in solid form. […] Pioglitazone sulfate may be isolated in solid state as a white or almost white crystalline material. It melts at a temperature of about 105 to 115° C., without decomposition. […] Pioglitazone sulfate is thus an especially useful form of pioglitazone for making pharmaceutical formulations, e.g., as an active agent. The pioglitazone sulfate can precipitate from the solution spontaneously, but more likely some step such as cooling, concentrating, adding a seeding crystal, or adding a contrasolvent is advantageously and/or necessarily carried out. As pioglitazone sulfate is soluble in methanol, the addition of a contrasolvent is advantageous for precipitating the solid state salt. […] The size and shape of the formed crystals may be modified by known ways, for instance by precipitation regimen or by using crystallization modifiers. Solid state pioglitazone sulfate is a stable, easily handled solid material, and it may be used as an equivalent to pioglitazone hydrochloride in pharmaceutical compositions for treating pioglitazone-treatable diseases. […] Liquid compositions, particularly aqueous compositions, may include a solution stabilizer as indicated above. The stabilizer preferably comprises a water-soluble polymer, such as hydroxypropylmethylcellulose. The concentration of the polymer in the solution can be within any of the above-described ranges but most preferably is within the range from 0.1 to 10% (w/V) of the total volume. An aqueous solution of pioglitazone sulfate typically has a pH of about 4, which is well suited for both parenteral and peroral compositions."}, "[5]": {"conditions": "cited from earlier work"}}, "note": "“Also recorded” adds a separate entry of the source. Structures can show the parent of a compound that is named as a salt. Where two headings read alike, the source gives them in different places.", "data": [{"smiles": "CCc1ccc(CCOc2ccc(CC3SC(=O)NC3=O)cc2)nc1", "note": "(stereo not shown) [Ca salt]", "values": [{"measurement": "soluble in H2O", "setting": "[1]", "result": "yes*"}]}, {"smiles": "CCc1ccc(CCOc2ccc(CC3SC(=O)NC3=O)cc2)nc1", "note": "(stereo not shown) [pioglitazone base, 5-[[4-[2-(5-ethyl-2-pyridinyl)-ethoxy]phenyl]methyl]-2,4-thiazolidinedione, reference compound]", "values": [{"measurement": "solubility in water", "setting": "[1]", "result": "so low"}]}, {"smiles": "CCc1ccc(CCOc2ccc(CC3SC(=O)NC3=O)cc2)nc1", "note": "(stereo not shown) [Na salt]", "values": [{"measurement": "soluble in H2O", "setting": "[1]", "result": "yes*"}]}, {"smiles": "CCc1ccc(CCOc2ccc(CC3SC(=O)NC3=O)cc2)nc1", "note": "(stereo not shown) [Choline salt]", "values": [{"measurement": "soluble in H2O", "setting": "[1]", "result": "yes*"}]}, {"smiles": "CCc1ccc(CCOc2ccc(CC3SC(=O)NC3=O)cc2)nc1", "note": "(stereo not shown) [K salt]", "values": [{"measurement": "soluble in H2O", "setting": "[1]", "result": "yes*"}]}, {"smiles": "CCc1ccc(CCOc2ccc(CC3SC(=O)NC3=O)cc2)nc1", "note": "(stereo not shown) [Edisylate]", "values": [{"measurement": "soluble in H2O", "setting": "[1]", "result": "Yes"}, {"measurement": "dissolution in water", "setting": "[1]; listed as ethane-di-sulfonate", "result": "dissolved instantly in water"}, {"measurement": "Dissolution (instant dissolution rate)", "setting": "[2]; listed as ethane-disulfonate", "result": "Yes"}, {"measurement": "later behaviour of the solution (turning into suspension / pioglitazone base)", "setting": "[2]; listed as ethane disulfonate", "result": "slowly turned into a suspension"}, {"measurement": "kind of solution yielded on addition to water", "setting": "[2]; listed as ethane disulfonate", "result": "clear solutions"}]}, {"smiles": "CCc1ccc(CCOc2ccc(CC3SC(=O)NC3=O)cc2)nc1", "note": "(stereo not shown) [Hydrobromide]", "values": [{"measurement": "soluble in H2O", "setting": "[1]", "result": "No"}]}, {"smiles": "CCc1ccc(CCOc2ccc(CC3SC(=O)NC3=O)cc2)nc1", "note": "(stereo not shown) [2-Napsylate]", "values": [{"measurement": "soluble in H2O", "setting": "[1]", "result": "Slight"}, {"measurement": "Dissolution (instant dissolution rate)", "setting": "[2]", "result": "yes/no**"}, {"measurement": "later behaviour of the solution (turning into suspension / pioglitazone base)", "setting": "[2]", "result": "quickly turned into a suspension"}, {"measurement": "kind of solution yielded on addition to water", "setting": "[2]", "result": "unclear solutions"}]}, {"smiles": "CCc1ccc(CCOc2ccc(CC3SC(=O)NC3=O)cc2)nc1", "note": "(stereo not shown) [Mesylate]", "values": [{"measurement": "soluble in H2O", "setting": "[1]", "result": "Yes"}, {"measurement": "dissolution in water", "setting": "[1]", "result": "dissolved instantly in water"}]}, {"smiles": "CCc1ccc(CCOc2ccc(CC3SC(=O)NC3=O)cc2)nc1", "note": "(stereo not shown) [Tosylate]", "values": [{"measurement": "Dissolution (instant dissolution rate)", "setting": "[2]", "result": "yes/no**"}, {"measurement": "later behaviour of the solution (turning into suspension / pioglitazone base)", "setting": "[2]", "result": "quickly turned into a suspension"}, {"measurement": "kind of solution yielded on addition to water", "setting": "[2]", "result": "unclear solutions"}]}, {"smiles": "CCc1ccc(CCOc2ccc(CC3SC(=O)NC3=O)cc2)nc1", "note": "(stereo not shown) [Sulfate, pioglitazone sulfate]", "values": [{"measurement": "soluble in H2O", "setting": "[1]", "result": "Yes"}, {"measurement": "stability of the water solution (precipitation of pioglitazone base)", "setting": "[1]; aqueous solution without stabilizer", "result": "can stably remain in an aqueous solution for hours; also recorded: will eventually, after a trace of solid appears, turn into a suspension of pioglitazone base"}, {"measurement": "dissolution in water", "setting": "[1]", "result": "dissolved instantly in water"}, {"measurement": "solubility in water", "setting": "[1]", "result": "superior aqueous solubility"}, {"measurement": "Dissolution (instant dissolution rate)", "setting": "[2]", "result": "Yes"}, {"measurement": "later behaviour of the solution (turning into suspension / pioglitazone base)", "setting": "[2]", "result": "slowly turned into a suspension"}, {"measurement": "kind of solution yielded on addition to water", "setting": "[2]", "result": "clear solutions"}, {"measurement": "dissolution in HPMC water solution", "setting": "[3]; 100 mg in HPMC water solution (2%, 25 ml)", "result": "easily dissolved"}, {"measurement": "dissolution in HPMC water solution", "setting": "[3]; 125 mg added with stirring to 1.0 g HPMC in 25 ml H2O", "result": "A clear solution was formed"}, {"measurement": "stability of the HPMC-stabilized solution", "setting": "[3]; 125 mg in 1.0 g HPMC / 25 ml H2O, stirred at room temperature for more than one month", "result": "No obvious solid appeared"}, {"measurement": "stability of the HPMC-stabilized solution", "setting": "[3]; 0.4% w/v pioglitazone sulfate in 2% HPMC water solution, room temperature, no obvious precipitation of a solid", "result": "stable at room temperature for at least four weeks"}, {"measurement": "pH of aqueous solution", "setting": "[4]; aqueous solution", "result": "about 4"}, {"measurement": "solubility in methanol", "setting": "[4]; methanol", "result": "soluble"}, {"measurement": "hygroscopicity of the solid compound", "setting": "[4]; solid", "result": "not hygroscopic"}, {"measurement": "stability of the solid state material", "setting": "[4]; solid state", "result": "stable"}]}, {"smiles": "CCc1ccc(CCOc2ccc(CC3SC(=O)NC3=O)cc2)nc1", "note": "(stereo not shown) [Hydrochloride, Pioglitazone hydrochloride]", "values": [{"measurement": "soluble in H2O", "setting": "[1]; hydrochloride", "result": "No"}, {"measurement": "behaviour of methanolic solution poured into water", "setting": "[1]; no base (neutralizing agent) used", "result": "pioglitazone base quickly precipitates"}, {"measurement": "dissolution in water", "setting": "[1]; hydrochloride", "result": "did not dissolve in water"}, {"measurement": "solubility in N,N-dimethylformamide", "setting": "[5]; N,N-dimethylformamide", "result": "dissolves well"}, {"measurement": "solubility in acetone", "setting": "[5]; acetone", "result": "very slightly soluble"}, {"measurement": "solubility in acetonitrile", "setting": "[5]; acetonitrile", "result": "very slightly soluble"}, {"measurement": "solubility in anhydrous ethanol", "setting": "[5]; anhydrous ethanol", "result": "slightly soluble"}, {"measurement": "solubility in dimethyl-sulfoxide", "setting": "[5]; dimethyl-sulfoxide", "result": "dissolves well"}, {"measurement": "solubility in ether", "setting": "[5]; ether", "result": "insoluble"}, {"measurement": "stability of the crystalline material", "setting": "[5]; room temperature and under moisture", "result": "stable"}, {"measurement": "solubility in water", "setting": "[5]; water, hydrochloride", "result": "practically insoluble; also recorded: extremely insoluble"}]}]}
